Data published in paper PMC5860131, “Identification of natural products as novel ligands for the human 5-HT2C receptor” (Biophysics Reports, 2018).
pIC50: −log10 of the molar value.

What was measured:
[1] = target: T1, 5-HT2C receptor G218^5.42A (Homo sapiens, UniProt P28335, DEL255-298/G218A/G251D/H250E/H252N/INS299[…]/L248D/M247A/M300L/T253W); assay: CPM thermal stability assay, 5-HT2C mutant G218A; format: binding
T1 construct: the N- and C-terminals were truncated by 39 and 65 residues, respectively; PreScission protease site + 10× His (C); made in house
T1 sequence (P28335 with tags, fused parts or gaps with the stated changes): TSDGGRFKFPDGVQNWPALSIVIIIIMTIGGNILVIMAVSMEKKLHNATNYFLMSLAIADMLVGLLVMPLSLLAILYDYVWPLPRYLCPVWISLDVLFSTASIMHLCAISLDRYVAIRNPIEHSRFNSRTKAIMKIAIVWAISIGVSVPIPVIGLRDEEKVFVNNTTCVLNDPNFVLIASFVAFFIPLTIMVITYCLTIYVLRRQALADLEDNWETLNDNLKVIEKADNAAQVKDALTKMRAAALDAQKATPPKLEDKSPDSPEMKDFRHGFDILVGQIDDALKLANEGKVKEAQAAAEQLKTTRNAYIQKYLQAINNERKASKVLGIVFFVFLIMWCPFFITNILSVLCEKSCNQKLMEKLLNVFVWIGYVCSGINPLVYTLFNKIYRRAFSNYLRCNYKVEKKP
Text: (§1) Based on the binding poses predicted by molecular docking, single-point mutations were designed to test their impact on ligand binding. Mutations of several residues include the highly conserved Asp134^3.32, which is known to cause 5-HT1B or 5-HT2B receptors to abolish the monoamine ligand binding as reported in the literature (Wang et al. [2013]). In this study, residues forming hydrophobic interactions with the substitution groups on the aporphine scaffold of (–)-crebanine (1) were selected for mutation as well and they are Thr139^3.37, Gly218^5.42, Ala222^5.46, and Leu209^ECL2. Effects of those mutations were tested with the CPM assay and the affinity MS assay (Table 2). In the affinity MS experiment, relative ligand-binding capacity (represented by binding %) to different mutants and the wild-type receptor was compared. […]
(§2) Purified 5-HT2C receptor protein was thoroughly mixed with CPM fluorescent dyes. […] Fluorescence signals, wavelength 387 nm (excitation) and 463 nm (emission), were monitored (Alexandrov et al. [2008]). […] The thermal denaturation of the samples was evaluated using the scatter plot curve, where the horizontal coordinates represented temperature and the vertical coordinates indicated normalized fluorescence intensity recorded for a particular temperature. […]

5-HT2B receptor = target: T2, 5-HT2B receptor (Homo sapiens, UniProt P41595); assay: Ca2+ mobilization assay (Fluo-4, FLIPR), HEK 293T cells stably transfected with 5-HT2B; format: cell-based
T2 construct: expressed in transfected cells; host or cells: HEK 293T, stably transfected
T2 sequence (P41595 whole entry): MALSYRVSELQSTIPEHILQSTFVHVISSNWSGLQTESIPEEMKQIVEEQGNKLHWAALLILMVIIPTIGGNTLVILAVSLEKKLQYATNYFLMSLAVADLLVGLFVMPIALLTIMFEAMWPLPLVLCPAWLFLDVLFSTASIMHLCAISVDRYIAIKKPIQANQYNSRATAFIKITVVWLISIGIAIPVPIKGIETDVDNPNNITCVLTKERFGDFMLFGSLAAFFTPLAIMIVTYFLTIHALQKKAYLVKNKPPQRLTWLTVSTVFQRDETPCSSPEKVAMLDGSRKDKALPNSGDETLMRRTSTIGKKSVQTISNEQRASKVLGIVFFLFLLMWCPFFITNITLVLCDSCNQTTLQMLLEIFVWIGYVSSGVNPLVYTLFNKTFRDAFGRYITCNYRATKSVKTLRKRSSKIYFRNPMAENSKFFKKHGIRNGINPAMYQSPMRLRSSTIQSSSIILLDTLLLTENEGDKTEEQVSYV
Text: The 5-HT2C receptor mainly couples to Gαq proteins. The activated 5-HT2C receptor transmits the signals from the extracellular to the intercellular side using DAG/IP3 (diacyl glycerol/inositol 1,4,5-trisphosphate) as its second massagers (Hannon and Hoyer [2008]). IP3 stimulates the endoplasmic reticulum to release calcium ions into the cytoplasm, which causes the increase of calcium concentration in cytosol. Therefore, calcium mobilization assay is commonly applied to understand how unknown small molecule ligands of 5-HT2C receptor modulate cellular signal transductions. In this case, Fluo-4 Direct dye was used as a fluorescence indicator to detect calcium flux in G protein-coupled receptor expressed cells. The fold of maximum response over average of basal reading is plotted against compound concentration to determine the potency of the compounds (Fig. 3). […]. […] After the dye loaded, cells were placed in a FLIPR^TETRA fluorescence imaging plate reader (Molecular Devices); drug dilutions, prepared at 3× final concentration in FLIPR buffer and aliquotted into 384-well plates, were also added to the FLIPR^TETRA. The fluidics module and plate reader of the FLIPR^TETRA were programmed to read baseline fluorescence for 10 s (1 read/s), then to add 10 μl of drug/well and to read for 6 min (1 read/s). […]

[2] = target: T3, 5-HT2C receptor G218^5.42S (Homo sapiens, UniProt P28335, DEL255-298/G218S/G251D/H250E/H252N/INS299[…]/L248D/M247A/M300L/T253W); assay: CPM thermal stability assay, 5-HT2C mutant G218S; format: binding
T3 construct: the N- and C-terminals were truncated by 39 and 65 residues, respectively; PreScission protease site + 10× His (C); made in house
T3 sequence (P28335 with tags, fused parts or gaps with the stated changes): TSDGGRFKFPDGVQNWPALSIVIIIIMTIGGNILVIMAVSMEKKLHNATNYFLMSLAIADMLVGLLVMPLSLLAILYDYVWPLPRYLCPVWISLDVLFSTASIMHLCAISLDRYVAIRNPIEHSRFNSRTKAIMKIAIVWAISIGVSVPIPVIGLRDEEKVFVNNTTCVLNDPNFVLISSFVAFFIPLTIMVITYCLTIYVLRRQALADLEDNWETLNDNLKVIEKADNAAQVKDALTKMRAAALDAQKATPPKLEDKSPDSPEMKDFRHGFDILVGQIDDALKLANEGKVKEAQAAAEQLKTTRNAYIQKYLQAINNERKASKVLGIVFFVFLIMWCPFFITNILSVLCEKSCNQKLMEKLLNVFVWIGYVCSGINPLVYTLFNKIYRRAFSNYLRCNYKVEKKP
Text: as §1, §2

5-HT2C receptor = target: T4, 5-HT2C receptor (Homo sapiens, UniProt P28335); assay: Ca2+ mobilization assay (Fluo-4, FLIPR), HEK 293T cells stably transfected with 5-HT2C; format: cell-based
T4 construct: expressed in transfected cells; host or cells: HEK 293T, stably transfected
T4 sequence (P28335 33-458): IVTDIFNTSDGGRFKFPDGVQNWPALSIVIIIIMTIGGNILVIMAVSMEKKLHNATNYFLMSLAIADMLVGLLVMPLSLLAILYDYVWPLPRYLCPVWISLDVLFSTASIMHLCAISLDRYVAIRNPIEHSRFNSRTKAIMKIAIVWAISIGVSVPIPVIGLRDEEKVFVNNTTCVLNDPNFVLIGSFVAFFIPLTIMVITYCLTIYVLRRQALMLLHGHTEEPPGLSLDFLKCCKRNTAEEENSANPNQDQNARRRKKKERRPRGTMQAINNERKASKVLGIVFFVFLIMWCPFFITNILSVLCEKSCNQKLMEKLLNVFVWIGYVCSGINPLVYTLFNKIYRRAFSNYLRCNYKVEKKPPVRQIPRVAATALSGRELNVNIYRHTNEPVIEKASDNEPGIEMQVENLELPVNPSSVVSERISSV
Text: The 5-HT2C receptor mainly couples to Gαq proteins. The activated 5-HT2C receptor transmits the signals from the extracellular to the intercellular side using DAG/IP3 (diacyl glycerol/inositol 1,4,5-trisphosphate) as its second massagers (Hannon and Hoyer [2008]). IP3 stimulates the endoplasmic reticulum to release calcium ions into the cytoplasm, which causes the increase of calcium concentration in cytosol. Therefore, calcium mobilization assay is commonly applied to understand how unknown small molecule ligands of 5-HT2C receptor modulate cellular signal transductions. In this case, Fluo-4 Direct dye was used as a fluorescence indicator to detect calcium flux in G protein-coupled receptor expressed cells. The fold of maximum response over average of basal reading is plotted against compound concentration to determine the potency of the compounds (Fig. 3). […]. HEK 293T cells stably transfected with 5-HT2A/2B/2C receptor were seeded in 384-well plates at a density of 15,000 cells/well in DMEM containing 1% dialyzed FBS 8 h before the calcium flux assay. After removing medium, cells were then incubated (20 μl/well) for 1 h at 37 °C with Fluo-4 Direct dye (Invitrogen) reconstituted in FLIPR buffer (1× HBSS, 2.5 mmol/L probenecid, and 20 mmol/L HEPES, pH 7.4). After the dye loaded, cells were placed in a FLIPR^TETRA fluorescence imaging plate reader (Molecular Devices); drug dilutions, prepared at 3× final concentration in FLIPR buffer and aliquotted into 384-well plates, were also added to the FLIPR^TETRA. The fluidics module and plate reader of the FLIPR^TETRA were programmed to read baseline fluorescence for 10 s (1 read/s), then to add 10 μl of drug/well and to read for 6 min (1 read/s). Fluorescence in each well was normalized to the average of the first 10 reads (i.e., baseline fluorescence). Then, the maximum-fold increase, which occurred within 60 s after drug addition, over baseline fluorescence elicited by vehicle or drug was determined. […]

[3] = target: T5, 5-HT2C receptor T139^3.37A (Homo sapiens, UniProt P28335, DEL255-298/G251D/H250E/H252N/INS299[…]/L248D/M247A/M300L/T139A/T253W); assay: CPM thermal stability assay, 5-HT2C mutant T139A; format: binding; details: mutant T139^3.37A, n = 2
T5 construct: the N- and C-terminals were truncated by 39 and 65 residues, respectively; PreScission protease site + 10× His (C); made in house
T5 sequence (P28335 with tags, fused parts or gaps with the stated changes): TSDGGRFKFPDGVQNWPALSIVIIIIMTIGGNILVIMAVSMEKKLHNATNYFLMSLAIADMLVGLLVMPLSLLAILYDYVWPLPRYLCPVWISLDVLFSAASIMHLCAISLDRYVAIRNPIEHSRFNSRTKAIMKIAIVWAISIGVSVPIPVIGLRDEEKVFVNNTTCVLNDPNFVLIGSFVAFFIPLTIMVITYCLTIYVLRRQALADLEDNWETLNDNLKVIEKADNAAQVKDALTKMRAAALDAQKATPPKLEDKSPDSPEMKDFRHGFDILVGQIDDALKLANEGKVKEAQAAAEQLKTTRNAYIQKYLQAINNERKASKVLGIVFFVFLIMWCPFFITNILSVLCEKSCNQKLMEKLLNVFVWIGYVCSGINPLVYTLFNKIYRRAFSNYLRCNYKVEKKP
Text: as §1, §2

Q: Which results are given for COc1ccc2c(c1OC)C[C@@H]1c3c(cc4c(c3-2)OCO4)CCN1C [Compound 1, (–)-crebanine]?
A: (–)-Crebanine/CPM (Tm) ([1]; mutant G218^5.42A, n = 2): 53.92 °C; Tm value decrease versus wild-type ([1]; mutation Gly218^5.42Ala): over 6.0 °C; pIC50 (5-HT2B receptor): 5.77; (–)-Crebanine/CPM (Tm) ([2]; mutant G218^5.42S, n = 2): 53.24 °C; Tm value decrease versus wild-type ([2]; mutation Gly218^5.42Ser): over 6.0 °C; pIC50 (5-HT2C receptor): 6.83; (–)-Crebanine/CPM (Tm) [3]: 54.63 °C
